Measurements published in patent publication US12564600B2, “System for enhancing therapeutic compliance of the anti-cancer compound E7766” (Eisai R&D Management Co., Ltd., priority 2019, dated 2026).
Entries after “also recorded” stand apart in the source; their conditions may differ.

Key:
[1] = Pharmacokinetics and excretion in bile duct-cannulated rat, single IV dose; format: in vivo, Sprague Dawley rats; settings: IV 1 mg/kg, Mean SD
Protocol: (§1) Male bile duct-cannulated beagle dogs or Sprague Dawley rats (n=3) were given a single intravenous (IV) dose of Compound 1. Plasma, urine and bile samples were collected from the dogs, and blood, urine, bile and feces samples were collected from rats up to 48 hours post-dose. Blood samples were kept on wet ice after collection until centrifuged for separation of plasma. Urine samples were collected at intervals 0 to 4, 4 to 8, 8 to 24, and 24 to 48 hours post-dose into collection tubes on wet ice. Bile samples were collected at intervals 0 to 4, 4 to 8, 8 to 24, and 24 to 48 hours post-dose into collection tubes cooled via an ice pack. Feces samples for rats were collected over 0 to 24 hour interval. All samples were transferred into properly labeled tubes and stored at −70° C. until pending shipment to the bioanalytical facility. All samples were analyzed using LC-MS/MS and the pharmacokinetic parameters of Compound 1 were determined with Phoenix WinNonlin using non-compartmental analysis.
(§2) Data are shown as Mean SD. NC indicates Not Collected.

OATP1B3 = target: T1, OATP1B3 (Homo sapiens, UniProt Q9NPD5); test: Uptake in HEK293 cells overexpressing OATP1B3; format: in vitro ADME
T1 construct: expressed in transfected cells; host or cells: HEK293-FT
T1 sequence (Q9NPD5 1-702): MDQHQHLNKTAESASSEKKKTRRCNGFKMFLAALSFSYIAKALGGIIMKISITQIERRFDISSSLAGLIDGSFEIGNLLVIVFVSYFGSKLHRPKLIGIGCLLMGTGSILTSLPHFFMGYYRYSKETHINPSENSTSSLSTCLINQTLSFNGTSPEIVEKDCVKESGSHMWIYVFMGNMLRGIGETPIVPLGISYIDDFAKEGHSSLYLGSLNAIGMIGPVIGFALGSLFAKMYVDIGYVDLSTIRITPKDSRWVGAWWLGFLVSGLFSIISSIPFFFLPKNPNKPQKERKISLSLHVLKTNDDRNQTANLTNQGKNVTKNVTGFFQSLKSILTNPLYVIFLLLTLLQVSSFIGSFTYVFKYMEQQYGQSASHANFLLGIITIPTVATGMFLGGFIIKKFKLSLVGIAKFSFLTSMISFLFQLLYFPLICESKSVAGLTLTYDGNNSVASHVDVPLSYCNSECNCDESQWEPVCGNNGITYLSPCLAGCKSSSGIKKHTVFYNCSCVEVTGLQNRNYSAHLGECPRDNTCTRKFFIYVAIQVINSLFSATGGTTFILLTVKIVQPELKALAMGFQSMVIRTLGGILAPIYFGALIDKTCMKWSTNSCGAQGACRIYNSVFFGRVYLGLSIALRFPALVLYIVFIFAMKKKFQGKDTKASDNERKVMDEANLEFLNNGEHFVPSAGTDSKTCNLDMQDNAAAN
Protocol: TransportoCells™ (Corning, N.Y., USA) expressing OATP2B1, NTCP, and HEK293-FT cells stably transfected with the vector containing OATP1B1 cDNA or OATP1B3 cDNA or empty vector were grown in a Dulbecoo's modified Eagle's medium fortified with 10% fetal calf serum and 2 mmol/L sodium butyrate (for NTCP only) in a humidified incubator at 37° C. and 5% CO2. Cells were harvested at 90% confluence and then seeded in poly-D-lysine-coated 24-well 24 h prior to transporter assay. Cells were washed twice and pre-incubated with 200 μL of pre-warmed Krebs-Henseleit buffer. After pre-incubation, cells were incubated with 3 or 10 μmol L-1 of Compound 1 in presence or absence of 100 μmol L-1 of inhibitors (Rifamycin SV for OATP2B1, Troglitazone for NTCP, Rifamycin for OATP1B1 and OATP1B3). The transport reaction was terminated by aspirating the buffer from the wells at designated time. After washing three times with 200 μL of ice-cold Krebs-Henseleit buffer, the cells were lysed and the resulting cellular lysates were analyzed by LC-MS/MS.
Concentration-dependent uptake of Compound 1 via OATP1B1 and OATP1B3 were conducted with a concentration range of 0.25-100 μmol L-1 under linear uptake. All experiments were run in triplicates.

OATP1B1/1B3 = test: Pharmacokinetics in humanized OATP1B1/1B3 mice with or without rifampin co-dose; format: in vivo; settings: 0.5 mg/kg IV, rifampin 30 mg/kg
Protocol: Age-matched Oatp1a/1b cluster-knockout, OATP1B1- or OATP1B3-knockin mice humanized on the Oatp1a/1b-knockout background, and wild-type FVB male mice were purchased from Taconic Biosciences (Hudson, N.Y., USA). Mice were between 8 and 10 weeks of age (22-34 g) at the time of study. Compound 1 was administered at a dose of 0.5 mg/kg coadministered with either vehicle or rifampin (30 mg/kg). Blood and liver samples were collected at 0.083, 0.25, 0.5, 1, 1.5, 3, 6 hours. Plasma was isolated from blood samples by centrifugation. All samples were stored at −80° C. until bioanalysis.
Compound 1 was dosed via intravenous administration to WT, humanized, and KO mice. Blood, urine, and feces were collected from the animals over 6 hours. Blood spots were collected and expelled FTA™ DMPK-B DBS Card (GE Healthcare, Life Sciences, Whatman™) within the appropriate sample circle. Pharmacokinetics of Compound 1 in WT animals was also assessed after co-administration with rifampin. Liver samples were also collected from WT animals and frozen until analysis. All samples were analyzed using LC-MS/MS and the pharmacokinetics parameters of Compound 1 were determined with Phoenix WinNonlin using non-compartmental analysis.
FIG. 2A through 2C show an in vivo PK profile and elimination of Compound 1 with and without a co-dose of the Oatp/OATP inhibitor Rifampin in different mouse models.

[2] = Pharmacokinetics and excretion in bile duct-cannulated dog, single IV dose; format: in vivo, beagle dogs; settings: IV 0.075 mg/kg, up to 48 h, Mean SD
Protocol: as §1, §2

Jmax (pmol/min/million cells), OATP1B3 (OATP1B3; Simcyp input parameter, Table 3): 24.39 pmol/min/million cells
Km (OATP1B3; human, HEK293-FT cells stably transfected with OATP1B3 cDNA, Simcyp input parameter, Table 3): 4 µM
increase in plasma concentration/exposure in the presence of rifampin (OATP1B1/1B3): 4.5 fold
SMILES: O=[P@]1(S)OC[C@H]2O[C@@H]3[C@H](F)[C@@H]2O[P@](=O)(S)OC[C@H]2O[C@H]([C@H](F)[C@@H]2O1)n1cnc2c(ncnc21)NC/C=C/CNc1ncnc2c1ncn23 [Compound 1]
% Ae, feces ([1]; 0 to 24 h): 0.4 ± 0.2%
% Ae, urine ([1]; up to 48 h, 1 mg/kg): 13.7 ± 2.8%
substrate of OATP1B3 (OATP1B3; HEK293 cells overexpressing human OATP1B3): responsible for hepatic uptake; also recorded: substrate
contribution of OATP1B3 versus OATP1B1 in hepatobiliary clearance (OATP1B3; phenotyping studies): predominant contribution of OATP1B3 over OATP1B1
% Ae, bile [2]: 87.9 ± 30.5%
